From the supplement of paper PMC10307832

Assays:
Assay in all cases: relative viability (nuclei count vs DMSO), 5 days (fraction); higher = more cells survive
Bemcentinib + Luminespib = compound: Nc1nc(Nc2ccc3c(c2)CC[C@@H](N2CCCC2)CC3)nn1-c1cc2c(nn1)-c1ccccc1CCC2 [Bemcentinib] + CCNC(=O)c1noc(-c2cc(C(C)C)c(O)cc2O)c1-c1ccc(CN2CCOCC2)cc1 [Luminespib] (partner 0.01 µM)
In short: (§1)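 Relative viability equals treated-well nuclei counts divided by vehicle-well nuclei counts. Counts came from 4× images of lung cancer cell lines grown in 1536-well plates for 5 days after pin-tool dosing on the day after seeding. Dosing used one drug alone or a fixed anchor-drug dose plus five library-drug doses (not always all listed) in √10 steps, and values are medians of duplicate plates.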

Axitinib + Trametinib = compound: CNC(=O)c1ccccc1Sc1ccc2c(/C=C/c3ccccn3)n[nH]c2c1 [Axitinib] + CC(=O)Nc1cccc(-n2c(=O)n(C3CC3)c(=O)c3c(Nc4ccc(I)cc4F)n(C)c(=O)c(C)c32)c1 [Trametinib] (partner 0.02 µM)
In short: as §1

[1] = compound: CC1=CC=C(C=C1)C(=O)CN2C3=C(CCCC3)SC2=N [Pifithrin_alpha] + CC(=O)c1c(C)c2cnc(Nc3ccc(N4CCNCC4)cn3)nc2n(C2CCCC2)c1=O [Palbociclib] (partner 0.5 µM)
In short: as §1

Axitinib + Alpelisib = compound: CNC(=O)c1ccccc1Sc1ccc2c(/C=C/c3ccccn3)n[nH]c2c1 [Axitinib] + Cc1nc(NC(=O)N2CCC[C@H]2C(N)=O)sc1-c1ccnc(C(C)(C)C(F)(F)F)c1 [Alpelisib] (partner 2 µM)
In short: as §1

Cell Line | relative viability (Bemcentinib + Luminespib; first compound 0.04 µM) | relative viability (Bemcentinib + Luminespib; first compound 0.1265 µM) | relative viability (Bemcentinib + Luminespib; first compound 0.4 µM) | relative viability (Bemcentinib + Luminespib; first compound 1.265 µM) | relative viability (Bemcentinib + Luminespib; first compound 4 µM) | relative viability (Axitinib + Trametinib; first compound 0.005 µM) | relative viability (Axitinib + Trametinib; first compound 0.01581 µM) | relative viability (Axitinib + Trametinib; first compound 0.05 µM) | relative viability (Axitinib + Trametinib; first compound 0.1581 µM) | relative viability (Axitinib + Trametinib; first compound 0.5 µM) | relative viability ([1]; first compound 1 µM) | relative viability ([1]; first compound 3.162 µM) | relative viability ([1]; first compound 10 µM) | relative viability ([1]; first compound 31.62 µM) | relative viability ([1]; first compound 100 µM) | relative viability (Axitinib + Alpelisib; first compound 0.005 µM) | relative viability (Axitinib + Alpelisib; first compound 0.01581 µM) | relative viability (Axitinib + Alpelisib; first compound 0.05 µM) | relative viability (Axitinib + Alpelisib; first compound 0.1581 µM) | relative viability (Axitinib + Alpelisib; first compound 0.5 µM)
NCI-H1975 | 0.162 | 0.216 | 0.249 | 0.187 | 0.204 | 0.44 | 0.361 | 0.325 | 0.348 | 0.328 | 0.573 | 0.435 | 0.32 | 0.302 | 0.339 | 0.777 | 0.73 | 0.766 | 0.667 | 0.74
NCI-H661 | 0.87 | 0.961 | 0.895 | 0.963 | 0.987 | 0.594 | 0.5 | 0.578 | 0.556 | 0.583 | 0.397 | 0.4 | 0.36 | 0.386 | 0.334 | 0.613 | 0.509 | 1.02 | 0.862 | 0.511
NCI-H1651 | 0.967 | 0.757 | 1.05 | 0.79 | 0.977 | 0.9 | 0.84 | 0.744 | 0.797 | 0.826 | 0.534 | 0.513 | 0.513 | 0.569 | 0.514 | 1.03 | 0.944 | 0.971 | 0.937 | 1.12
NCI-H647 | 0.142 | 0.157 | 0.108 | 0.143 | 0.136 | 0.587 | 0.484 | 0.49 | 0.407 | 0.506 | 0.376 | 0.364 | 0.353 | 0.269 | 0.285 | 1.27 | 1.24 | 1.28 | 1.11 | 1.6
NCI-H2126 | 0.893 | 0.973 | 0.81 | 0.975 | 0.939 | 0.536 | 0.612 | 0.578 | 0.603 | 0.545 | 0.333 | 0.381 | 0.356 | 0.302 | 0.373 | 0.724 | 0.795 | 0.745 | 0.707 | 0.697
SK-LU-1 | 0.204 | 0.202 | 0.196 | 0.192 | 0.198 | 0.515 | 0.631 | 0.478 | 0.412 | 0.459 | 0.349 | 0.412 | 0.405 | 0.308 | 0.413 | 1.11 | 1.32 | 1.05 | 1.06 | 1.63
LC-2-ad | 0.997 | 1.11 | 1.03 | 0.935 | 0.905 | 0.953 | 0.864 | 0.885 | 0.873 | 0.871 | 0.514 | 0.503 | 0.51 | 0.375 | 0.432 | 0.942 | 0.859 | 0.83 | 0.907 | 0.903
NCI-H23 | 0.197 | 0.233 | 0.192 | 0.224 | 0.214 | 0.45 | 0.373 | 0.433 | 0.405 | 0.368 | 0.537 | 0.413 | 0.445 | 0.351 | 0.413 | 0.83 | 0.862 | 0.554 | 0.861 | 0.796
NCI-H2228 | 0.128 | 0.152 | 0.159 | 0.111 | 0.134 | 0.683 | 0.515 | 0.561 | 0.478 | 0.509 | 0.833 | 0.75 | 0.659 | 0.453 | 0.853 | 0.884 | 0.699 | 0.798 | 0.677 | 0.964
SW 1573 | 0.203 | 0.185 | 0.212 | 0.152 | 0.215 | 0.525 | 0.558 | 0.665 | 0.521 | 0.611 |  | 0.395 | 0.367 | 0.241 | 0.266 | 0.766 | 0.954 | 0.783 | 0.774 | 0.738
HCC-15 | 0.326 | 0.485 | 0.293 | 0.253 | 0.235 | 0.403 | 0.417 | 0.378 | 0.372 | 0.383 | 0.514 | 0.731 | 0.765 | 0.516 | 0.625 | 0.933 | 0.899 | 0.838 | 0.847 | 0.866
H3255 | 0.745 | 1.07 | 0.793 | 0.777 | 0.747 | 0.573 |  | 0.551 | 0.486 | 0.558 | 0.292 | 0.304 | 0.298 | 0.296 | 0.304 | 0.648 | 0.611 | 0.632 | 0.724 | 0.702
SK-MES-1 | 0.456 | 0.742 | 0.786 | 0.761 | 1.07 | 0.553 | 0.562 | 0.569 | 0.485 | 0.581 | 0.294 | 0.286 | 0.267 | 0.266 | 0.267 | 0.981 | 0.974 | 1.04 | 0.943 | 1.12
